From ChEMBL document CHEMBL1201862, “PubChem BioAssay data set” (2004) come the findings set out here.

What all share (test): NCI-60 cell line screen, 48 h
Experiment [1] has as its system EKVX.
The subject of experiment [2] is TK-10.
For experiment [3], the system named is MOLT-4.
Experiment [4] deals with SK-MEL-5.
Experiment [5] deals with HOP-92.
The subject of experiment [6] is ACHN.
The test system of experiment [7] is PC-3.
In experiment [8] the test system is IGROV-1.
Experiment [9] deals with M14.
In experiment [10] the test system is OVCAR-8.
The test system of experiment [11] is SK-MEL-2.
For experiment [12], the system named is COLO 205.
The test system of experiment [13] is RXF 393.
The test system of experiment [14] is SW-620.
Experiment [15] relates to Hs-578T.
The subject of experiment [16] is NCI-H23.
The test system of experiment [17] is LOX IMVI.
Experiment [18] deals with NCI-H460.
The subject of experiment [19] is HL-60.
For experiment [20], the system named is HCC 2998.

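Cells were grown in 96-well plates and exposed to each compound for 48 hours at five concentrations; endpoints were interpolated linearly between bracketing concentrations, or set to the highest concentration if not reached. Abbreviation: GI50, concentration required for 50% inhibition of growth.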 Activity calls are given as the source filed them. Cut-off read from the data, not from the text of the source: active = GI50 up to about 1.1 µM and inactive = higher. A value given as a limit tells only on which side of the number the result lay.

In the case of `[N-]=[N+]=Nc1cc(=O)n(-c2ccccc2)c(=O)n1-c1ccccc1`, the GI50 in [1], in experiment [2], in experiment [3], in [4], in [5] and in experiment [6] was > 100 µM (inactive) each time. Moreover, the GI50 in experiment [7], in experiment [8], in [9], in experiment [10], in experiment [11] and in experiment [12] was > 100 µM (inactive) each time. Also, the GI50 in experiment [13], in experiment [14], in experiment [15] and in experiment [16] was > 100 µM (inactive) throughout.
Consider `CCN(CC)CCOc1ccc(N2C(=O)c3cccc4cc([N+](=O)[O-])cc(c34)C2=O)cc1`, for which the GI50 in experiment [1] is 16.3 µM (inactive); in experiment [2], 13.3 µM (inactive); in [3] it was 1.67 µM (inactive); in experiment [17], 3.88 µM (inactive); in [4], 12.1 µM (inactive); in experiment [5], 20 µM (inactive). Further, the GI50 in experiment [6] was 3.1 µM (inactive); in experiment [7] it was 6.73 µM (inactive); in experiment [18] it was 0.524 µM (active); in experiment [8], 7.08 µM (inactive); in experiment [9] it was 12.4 µM (inactive); in experiment [10], 10.9 µM (inactive). Also, the GI50 in experiment [11] was 16.3 µM (inactive); in experiment [12], 10 µM (inactive); in experiment [14] it was 7.48 µM (inactive); in experiment [15], 14.7 µM (inactive); in experiment [19], 11.8 µM (inactive); in experiment [20], 11.6 µM (inactive). The GI50 in [16] is 11.6 µM (inactive).
Regarding `Cc1cc(-c2nc3ccccc3s2)ccc1NC(=O)[C@@H](N)CCCCN`, the GI50 in experiment [1] was 12.2 µM (inactive); in [2] it was 0.993 µM (active); in experiment [3] it was 6.58 µM (inactive); in experiment [17] it was 2.03 µM (inactive); in experiment [4] it was 13.9 µM (inactive); in [5], 16.1 µM (inactive). Further, the GI50 in [6] is 14.7 µM (inactive); in [7] it was 14.3 µM (inactive); in experiment [18], 2.22 µM (inactive); in experiment [8] it was 1.69 µM (inactive); in experiment [9], 2.47 µM (inactive); in experiment [10], 6.78 µM (inactive). The GI50 in experiment [11] was 13.4 µM (inactive); in [12], 12.4 µM (inactive); in experiment [13], 3.89 µM (inactive); in experiment [14], 12.7 µM (inactive); in [15] it was 18.5 µM (inactive); in experiment [20] it was 6.31 µM (inactive). For the same compound, the GI50 in [16] is 6.7 µM (inactive).
In the case of `CCOC(=O)N/N=C(/N)c1cccc(Br)c1`, the GI50 is 83 µM (inactive) in [1]; > 100 µM (inactive) in experiment [2]; > 100 µM (inactive) in [3]; > 100 µM (inactive) in experiment [17]; > 100 µM (inactive) in experiment [4]; > 100 µM (inactive) in experiment [6]. Also, the GI50 in experiment [7], in experiment [18], in experiment [8], in [9], in [10] and in [11] was > 100 µM (inactive) in each case. Moreover, the GI50 in [12], in experiment [13], in [15], in experiment [19], in experiment [20] and in experiment [16] was > 100 µM (inactive) throughout.
Regarding `CC1=NC(=Cc2cccc(Cl)c2)C(=O)N1n1c(-c2ccccc2)nc2ccccc2c1=O`, the GI50 in [1] was 21.2 µM (inactive); in experiment [2], 50.6 µM (inactive); in experiment [3], 27.9 µM (inactive); in [17], 25.9 µM (inactive); in experiment [4] it was 28.2 µM (inactive); in experiment [6], 24.5 µM (inactive). Further, the GI50 is 31.3 µM (inactive) in experiment [7]; 19.3 µM (inactive) in experiment [18]; 23.2 µM (inactive) in experiment [8]; 31.4 µM (inactive) in experiment [9]; 43.4 µM (inactive) in experiment [10]; 36.1 µM (inactive) in experiment [12]. In addition, the GI50 is 55 µM (inactive) in [14]; 24.5 µM (inactive) in [15]; 22.8 µM (inactive) in [19]; 24.5 µM (inactive) in experiment [20]; 25.6 µM (inactive) in experiment [16].
`COC1C(OC(=O)/C=C/C=C/C=C/C=C\C(=O)O)CCC2(CO2)C1C1(C)OC1CC=C(C)C` (centres undefined): the GI50 in experiment [1], in experiment [2], in experiment [3], in experiment [17], in experiment [4] and in experiment [5] was > 100 µM (inactive) in each case. In addition, the GI50 in experiment [6], in experiment [7], in experiment [18], in experiment [8], in [9] and in experiment [10] was > 100 µM (inactive) throughout. In addition, the GI50 in [11], in [12], in experiment [13], in [14], in experiment [15] and in experiment [20] was > 100 µM (inactive) each time. In experiment [16], the GI50 was > 100 µM (inactive).
Regarding `COc1ccc(C(=O)N2CCN(c3ccc4c(c3)OCC(=O)N4)CC2)cc1OC`, the GI50 in experiment [1], in experiment [2], in experiment [3], in experiment [17], in [4] and in experiment [5] was > 100 µM (inactive) each time. Also, the GI50 in [6], in [7], in experiment [18], in experiment [8], in [9] and in [10] was > 100 µM (inactive) throughout. Moreover, the GI50 in experiment [11], in experiment [12], in [14], in experiment [15], in experiment [19] and in [20] was > 100 µM (inactive) throughout. Also, the GI50 in experiment [16] is > 100 µM (inactive).
Turning to `O=C1[C@@H]2C[C@@H](O)CN2C(=O)c2ccccc2N1CCCO`, the GI50 is > 100 µM (inactive) in experiment [1]; > 100 µM (inactive) in experiment [2]; 82 µM (inactive) in [3]; > 100 µM (inactive) in [17]; > 100 µM (inactive) in [5]; > 100 µM (inactive) in experiment [6]. The GI50 in experiment [7], in experiment [18], in experiment [8], in experiment [9], in experiment [10] and in [11] was > 100 µM (inactive) throughout. The GI50 in experiment [14] and in experiment [15] was > 100 µM (inactive) each time.
In the case of `O=S(=O)(O)c1ccc(O)c(/N=N/c2c(O)ccc3ccccc23)c1`, the GI50 in experiment [1], in experiment [2], in experiment [3], in experiment [17], in [4] and in experiment [5] was > 100 µM (inactive) in each case. Besides, the GI50 in experiment [7] is > 100 µM (inactive); in experiment [8], > 100 µM (inactive); in experiment [9] it was > 100 µM (inactive); in experiment [10], > 100 µM (inactive); in experiment [11], > 100 µM (inactive); in experiment [12], 87.3 µM (inactive). The GI50 in [13], in experiment [14], in experiment [15] and in experiment [16] was > 100 µM (inactive) each time.
As for `C=C(C)C(=O)OC1C[C@H](COC(C)=O)C2CC=C(CO)C2C2OC(=O)C(=C)[C@H]12` (some centres undefined), the GI50 in [1] was > 100 µM (inactive); in experiment [2], 74.6 µM (inactive); in experiment [3] it was 13.8 µM (inactive); in experiment [17] it was 26.7 µM (inactive); in experiment [4] it was > 100 µM (inactive); in experiment [6], 44.3 µM (inactive). Moreover, the GI50 in experiment [7] is > 100 µM (inactive); in experiment [18] it was > 100 µM (inactive); in [8], > 100 µM (inactive); in [9], 16.3 µM (inactive); in experiment [10] it was > 100 µM (inactive); in experiment [11], 40.3 µM (inactive). In addition, the GI50 was 16.4 µM (inactive) in experiment [12]; 16.2 µM (inactive) in experiment [14]; > 100 µM (inactive) in [15]; 23.1 µM (inactive) in [19]; 47.2 µM (inactive) in experiment [20]; 42.8 µM (inactive) in [16].
As for `O=C(O)CC(Cc1ccccc1Cl)C(=O)O` (centres undefined), the GI50 in experiment [1], in experiment [2], in experiment [3], in experiment [17], in experiment [4] and in experiment [5] was > 100 µM (inactive) throughout. The GI50 in [6], in experiment [7], in [18], in experiment [8], in experiment [9] and in experiment [10] was > 100 µM (inactive) each time. For the same compound, the GI50 in experiment [11], in experiment [12], in [13], in experiment [14], in experiment [15] and in [20] was > 100 µM (inactive) in each case. Besides, the GI50 in [16] was > 100 µM (inactive).
